# Measured values reported in patent publication US20250320202A1, “PRMT5 INHIBITOR, PREPARATION METHOD THEREFOR, AND PHARMACEUTICAL USE THEREOF” (Abbisko Therapeutics Co., Ltd., priority 2022, published 2025).
# pIC50: −log10 of the molar value.
# System: HCT116 MTAP knockout cells
# Assay: Human colon cancer HCT116 cell proliferation inhibition test (CellTiter-Glo, 6 days), MTAP knockout cells
# Format: cell-based
# Conditions: HCT-116, 144 h
# Description: 1. HCT116 MTAP knockout and MTAP wild-type cells were plated in 96-well flat bottom plates, and cultured overnight with McCoy's 5A medium containing 10% fetal bovine serum+1% penicillin-streptomycin at 37° C. and 5% CO2.
# 2. On the next day, the compound was dissolved with DMSO, diluted with DMSO and medium successively and transferred to the cell plate. The final concentration of the compound was 10 μM, the compound was diluted 4 times, with 9 concentration gradients, and DMSO control was added.
# 3. Cells that have not been treated with the compound were removed. CellTiter-Glo Luminescent Cell Viability Assay (Promega) was used to detect cell viability, the operation was performed with reference to the package insert of the kit, and then the cell plate was placed on EnVision Multilabel Reader to detect the cold light signal.
# 4. Meanwhile, the cell plate treated with the compound was cultured at 37° C. and 5% CO2 for 6 consecutive days.
# 5. Then, CellTiter-Glo was also used to detect cell viability.
# 6. Finally, the four-parameter dose-response curve module of GraphPad Prism v 9.2.0 software was used to plot the dose-response curve and calculate the IC50 for proliferation inhibition (unit: nM).
row,pIC50,SMILES
1,6.10,"Nc1nc2ccc(C(=O)N(CC3CC3)[C@H]3CCc4nc(C(F)(F)F)ccc43)cc2c2cnccc12 [Example 1, (S)-5-amino-N-(cyclopropylmethyl)-N-(2-(trifluoromethyl)-6,7-dihydro-5H-cyclopenta[b]pyridin-5-yl)benzo[c][2,6]naphthyridin-9-carboxamide]"
2,7.24,"Cn1ncc2c(N)nc3cc(F)c(C(=O)N(Cc4ncccn4)C4CCc5cc(C(F)(F)F)ccc54)cc3c21 (centres unmarked) [Example 7, 4-amino-7-fluoro-1-methyl-N-(pyrimidin-2-ylmethyl)-N-(5-(trifluoromethyl)-2,3-dihydro-1H-inden-1-yl)-1H-pyrazol[4,3-c]quinolin-8-carboxamide]"
3,8.40,"Cn1cc(N(C(=O)c2cc3c(cc2F)nc(N)c2cnn(C)c23)C2CCc3cc(C(F)(F)F)ccc32)cn1 (centres unmarked) [Example 8, 4-amino-7-fluoro-1-methyl-N-(1-methyl-1H-pyrazol-4-yl)-N-(5-(trifluoromethyl)-2,3-dihydro-1H-inden-1-yl)-1H-pyrazolo[4,3-c]quinolin-8-carboxamide]"
4,7.28,"Cn1ncc2c(N)nc3cc(F)c(C(=O)N(Cc4cscn4)C4CCc5cc(C(F)(F)F)ccc54)cc3c21 (centres unmarked) [Example 95, 4-amino-7-fluoro-1-methyl-N-(thiazol-4-ylmethyl)-N-(5-(trifluoromethyl)-2,3-dihydro-1H-inden-1-yl)-1H-pyrazolo[4,3-c]quinolin-8-carboxamide]"
5,6.94,"Nc1nc2ccc(C(=O)N(CC3CC3)C3CCc4nc(C(F)(F)F)ccc43)cc2c2cnccc12 (centres unmarked) [Example 110, 5-amino-N-(cyclopropylmethyl)-N-(2-(trifluoromethyl)-6,7-dihydro-5H-cyclopenta[b]pyridin-5-yl)benzo[c][2,6]naphthyridin-9-carboxamide]"
6,6.94,"Nc1nc2ccc(C(=O)N(CC3CC3)C3COc4nc(C(F)(F)F)ccc43)cc2c2cnccc12 (centres unmarked) [Example 111, 5-amino-N-(cyclopropylmethyl)-N-(6-(trifluoromethyl)-2,3-dihydrofuro[2,3-b]pyridin-3-yl)benzo[c][2,6]naphthyridin-9-carboxamide]"
7,8.40,"Cn1ncc2c(N)nc3cc(F)c(C(=O)N(c4cscn4)C4CCc5cc(C(F)(F)F)ccc54)cc3c21 (centres unmarked) [Example 152, 4-amino-7-fluoro-1-methyl-N-(thiazol-4-yl)-N-(5-(trifluoromethyl)-2,3-dihydro-1H-inden-1-yl)-1H-pyrazolo[4,3-c]quinolin-8-carboxamide]"
8,6.86,"Cn1ncc2c(N)nc3cc(F)c(C(=O)N(CC(F)(F)F)C4COc5cc(C(F)(F)F)ccc54)cc3c21 (centres unmarked) [Example 157, 4-amino-7-fluoro-1-methyl-N-(2,2,2-trifluoroethyl)-N-(6-(trifluoromethyl)-2,3-dihydrobenzofuran-3-yl)-1H-pyrazolo[4,3-c]quinolin-8-carboxamide]"
9,5.54,"Nc1nc2ccc(C(=O)N(c3ncns3)[C@@H]3CCc4cc(C(F)(F)F)ccc43)cc2c2cnccc12 [Example 191, (R)-5-amino-N-(1,2,4-thiadiazol-5-yl)-N-(5-(trifluoromethyl)-2,3-dihydro-1H-inden-1-yl)benzo[c][2,6]naphthyridin-9-carboxamide]"
10,5.82,"Nc1nc2ccc(C(=O)N(CC3CC3)[C@H]3COc4nc(C(F)(F)F)ccc43)cc2c2cnccc12 [Example 196, (R)-5-amino-N-(cyclopropylmethyl)-N-(6-(trifluoromethyl)-2,3-dihydrofuro[2,3-b]pyridin-3-yl)benzo[c][2,6]naphthyridin-9-carboxamide]"
11,6.87,"Nc1nc2ccc(C(=O)N(CC3CC3)[C@@H]3CCc4nc(C(F)(F)F)ccc43)cc2c2cnccc12 [Example 199, (R)-5-amino-N-(cyclopropylmethyl)-N-(2-(trifluoromethyl)-6,7-dihydro-5H-cyclopenta[b]pyridin-5-yl)benzo[c][2,6]naphthyridin-9-carboxamide]"
12,8.40,"Cn1ncc2c(N)nc3cc(F)c(C(=O)N(c4cscn4)[C@@H]4CCc5cc(C(F)(F)F)ccc54)cc3c21 [Example 211, (R)-4-amino-7-fluoro-1-methyl-N-(thiazol-4-yl)-N-(5-(trifluoromethyl)-2,3-dihydro-1H-inden-1-yl)-1H-pyrazolo[4,3-c]quinolin-8-carboxamide]"
13,7.80,"Nc1nc2ccc(C(=O)N(c3cscn3)[C@@H]3CCc4cc(C(F)(F)F)ccc43)cc2c2cnccc12 [Example 212, (R)-5-amino-N-(thiazol-4-yl)-N-(5-(trifluoromethyl)-2,3-dihydro-1H-inden-1-yl)benzo[c][2,6]naphthyridin-9-carboxamide]"
14,6.49,"Cn1ncc2c(N)nc3ccc(C(=O)N(c4ncccn4)C4CCc5cc(C(F)(F)F)ccc54)cc3c21 (centres unmarked) [Example 214, 4-amino-1-methyl-N-(pyrimidin-2-yl)-N-(5-(trifluoromethyl)-2,3-dihydro-1H-inden-1-yl)-1H-pyrazolo[4,3-c]quinolin-8-carboxamide]"
15,5.16,"COC[C@@H](C)N(C(=O)c1ccc2nc(N)c3ccncc3c2c1)[C@H]1CCc2cc(C(F)(F)F)ccc21 [Example 215, 5-amino-N-((R)-1-methoxypropan-2-yl)-N-((S)-5-(trifluoromethyl)-2,3-dihydro-1H-inden-1-yl)benzo[c][2,6]naphthyridin-9-carboxamide]"
16,6.03,"COC[C@@H](C)N(C(=O)c1ccc2nc(N)c3ccncc3c2c1)[C@@H]1CCc2cc(C(F)(F)F)ccc21 [Example 216, 5-amino-N-((R)-1-methoxypropan-2-yl)-N-((R)-5-(trifluoromethyl)-2,3-dihydro-1H-inden-1-yl)benzo[c][2,6]naphthyridin-9-carboxamide]"
17,5.63,"COC[C@@H](C)N(C(=O)c1cc2c3c(c(N)nc2cc1F)COC3)[C@H]1CCc2cc(C(F)(F)F)ccc21 [Example 217, 4-amino-7-fluoro-N-((R)-1-methoxypropan-2-yl)-N-((S)-5-(trifluoromethyl)-2,3-dihydro-1H-inden-1-yl)-1,3-dihydrofuro[3,4-c]quinolin-8-carboxamide]"
18,6.31,"COC[C@@H](C)N(C(=O)c1cc2c3c(c(N)nc2cc1F)COC3)[C@@H]1CCc2cc(C(F)(F)F)ccc21 [Example 218, 4-amino-7-fluoro-N-((R)-1-methoxypropan-2-yl)-N-((R)-5-(trifluoromethyl)-2,3-dihydro-1H-inden-1-yl)-1,3-dihydrofuro[3,4-c]quinolin-8-carboxamide]"
19,6.66,"C[C@H](c1ncccn1)N(C(=O)c1ccc2nc(N)c3ccncc3c2c1)[C@@H]1CCc2cc(C(F)(F)F)ccc21 [Example 222, 5-amino-N-((R)-1-(pyrimidin-2-yl)ethyl)-N-((R)-5-(trifluoromethyl)-2,3-dihydro-1H-inden-1-yl)benzo[c][2,6]naphthyridin-9-carboxamide]"
20,6.93,"C[C@H](c1ncccn1)N(C(=O)c1cc2c3c(c(N)nc2cc1F)COC3)[C@@H]1CCc2cc(C(F)(F)F)ccc21 [Example 223, 4-amino-7-fluoro-N-((R)-1-(pyrimidin-2-yl)ethyl)-N-((R)-5-(trifluoromethyl)-2,3-dihydro-1H-inden-1-yl)-1,3-dihydrofuro[3,4-c]quinolin-8-carboxamide]"
